Test results: US9260408B2, “Dihydroquinoline-2-one derivatives” (Hoffmann-La Roche Inc., priority 2011, dated 2016)
Where a name gives a salt, the structure may show the parent alone.

How the values were obtained:
[1] = target: T1, human CYP11B2 (Homo sapiens, UniProt P19099); test: G-402 cellular enzyme assay, human CYP11B2 (aldosterone release, HTRF); format: cell-based; conditions: G-402 cells expressing human CYP11B2; 1 μM Deoxycorticosterone
T1 construct: expressed in transfected cells
T1 sequence (P19099 25-503): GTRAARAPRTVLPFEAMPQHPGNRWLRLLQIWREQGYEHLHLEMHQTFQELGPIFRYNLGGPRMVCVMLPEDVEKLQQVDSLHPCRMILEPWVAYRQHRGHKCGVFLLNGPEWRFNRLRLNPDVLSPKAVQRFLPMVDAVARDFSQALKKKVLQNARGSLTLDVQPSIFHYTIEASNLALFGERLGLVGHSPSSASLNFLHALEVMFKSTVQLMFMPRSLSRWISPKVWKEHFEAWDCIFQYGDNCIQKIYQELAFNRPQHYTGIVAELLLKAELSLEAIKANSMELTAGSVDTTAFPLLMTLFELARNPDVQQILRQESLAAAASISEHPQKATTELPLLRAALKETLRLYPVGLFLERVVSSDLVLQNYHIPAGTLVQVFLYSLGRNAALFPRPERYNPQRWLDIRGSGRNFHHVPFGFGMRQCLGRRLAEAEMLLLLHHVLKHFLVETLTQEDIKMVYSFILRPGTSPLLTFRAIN
How it was run: (§1)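 G-402 cells stably expressing human CYP11B2 or CYP11B1, in DMEM/F12 with 2.5% charcoal-treated FCS, were incubated 16 h with compound plus 1 μM deoxycorticosterone (CYP11B2) or 1 μM deoxycortisol (CYP11B1). Aldosterone or cortisol in the supernatant measured by HTRF; EC50 from a 4-parameter MMF fit.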

[2] = target: T2, human CYP11B1 (Homo sapiens, UniProt P15538); test: G-402 cellular enzyme assay, human CYP11B1 (cortisol release, HTRF); format: cell-based; conditions: G-402 cells expressing human CYP11B1; 1 μM Deoxycortisol
T2 construct: expressed in transfected cells
T2 sequence (P15538 25-503): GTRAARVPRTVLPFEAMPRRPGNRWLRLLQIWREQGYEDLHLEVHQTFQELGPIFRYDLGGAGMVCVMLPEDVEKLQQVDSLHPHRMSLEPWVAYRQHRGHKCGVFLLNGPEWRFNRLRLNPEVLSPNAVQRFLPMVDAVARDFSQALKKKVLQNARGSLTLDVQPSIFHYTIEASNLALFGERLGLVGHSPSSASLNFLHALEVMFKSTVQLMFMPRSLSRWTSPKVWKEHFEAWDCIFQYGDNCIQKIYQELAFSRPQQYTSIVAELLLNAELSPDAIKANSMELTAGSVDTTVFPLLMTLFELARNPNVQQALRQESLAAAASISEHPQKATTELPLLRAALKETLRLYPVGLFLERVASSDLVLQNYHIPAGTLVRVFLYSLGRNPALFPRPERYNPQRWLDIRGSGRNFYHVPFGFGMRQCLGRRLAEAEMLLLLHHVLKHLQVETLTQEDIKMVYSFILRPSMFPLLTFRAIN
How it was run: as §1

Row | EC50 [1] | EC50 [2] | SMILES
1 | 8 nM | 514 nM | CN(Cc1cncc(-c2ccc3c(c2)CCC(=O)N3C)c1)C(=O)c1ncccc1Cl [Example 196, 3-Chloro-pyridine-2-carboxylic acid methyl-[5-(1-methyl-2-oxo-1,2,3,4-tetrahydro-quinolin-6-yl)-pyridin-3-ylmethyl]-amide]
2 | 4 nM | 62 nM | CCC(=O)N(C)CCOc1cncc(-c2ccc3c(c2)CCC(=O)N3C)c1 [Example 197, N-Methyl-N-{2-[5-(1-methyl-2-oxo-1,2,3,4-tetrahydro-quinolin-6-yl)-pyridin-3-yloxy]-ethyl}-propionamide]
3 | 7 nM | 188 nM | CN(Cc1cncc(-c2ccc3c(c2)CCC(=O)N3C)c1)C(=O)c1cnn(C)c1 [Example 198, 1-Methyl-1H-pyrazole-4-carboxylic acid methyl-[5-(1-methyl-2-oxo-1,2,3,4-tetrahydro-quinolin-6-yl)-pyridin-3-ylmethyl]-amide]
4 | 3 nM | 28 nM | Cc1cccnc1C(=O)N(C)Cc1cncc(-c2ccc3c(c2)CCC(=O)N3C)c1 [Example 199, 3-Methyl-pyridine-2-carboxylic acid methyl-[5-(1-methyl-2-oxo-1,2,3,4-tetrahydro-quinolin-6-yl)-pyridin-3-ylmethyl]-amide]
5 | 1 nM | 31 nM | CN(Cc1cncc(-c2cc3c(cc2F)N(C)C(=O)CC3)c1)C(=O)c1ncccc1Cl [Example 200, 3-Chloro-pyridine-2-carboxylic acid [5-(7-fluoro-1-methyl-2-oxo-1,2,3,4-tetrahydro-quinolin-6-yl)-pyridin-3-ylmethyl]-methyl-amide]
6 | 24 nM | 436 nM | CN1C(=O)CCc2cc(-c3cncc(C4(N(C)C(=O)c5ncccc5Cl)CC4)c3)ccc21 [Example 201, 3-Chloro-pyridine-2-carboxylic acid methyl-{1-[5-(1-methyl-2-oxo-1,2,3,4-tetrahydro-quinolin-6-yl)-pyridin-3-yl]-cyclopropyl}-amide]
7 | 83 nM | 4960 nM | CCS(=O)(=O)NCc1cncc(-c2cc(Cl)c3c(c2)CCC(=O)N3)c1 [Example 203, Ethanesulfonic acid [5-(8-chloro-2-oxo-1,2,3,4-tetrahydro-quinolin-6-yl)-pyridin-3-ylmethyl]-amide]
8 | 20 nM | 2240 nM | O=C1CCc2cc(-c3cncc(CNC(=O)c4ncccc4Cl)c3)cc(Cl)c2N1 [Example 204, 3-Chloro-pyridine-2-carboxylic acid [5-(8-chloro-2-oxo-1,2,3,4-tetrahydro-quinolin-6-yl)-pyridin-3-ylmethyl]-amide]
9 | 97 nM | 4030 nM | Cc1noc(C)c1C(=O)NCc1cncc(-c2cc(Cl)c3c(c2)CCC(=O)N3)c1 [Example 205, 3,5-Dimethyl-isoxazole-4-carboxylic acid [5-(8-chloro-2-oxo-1,2,3,4-tetrahydro-quinolin-6-yl)-pyridin-3-ylmethyl]-amide]
10 | 10 nM | 237 nM | CCC1(NCc2cncc(-c3ccc4c(c3)CCC(=O)N4C)c2)COC1 [Example 206, 6-{5-[(3-Ethyl-oxetan-3-ylamino)-methyl]-pyridin-3-yl}-1-methyl-3,4-dihydro-1H-quinolin-2-one]
11 | 44 nM | 2540 nM | CCS(=O)(=O)NCc1cncc(-c2cc3c(cc2Cl)N(C)C(=O)CC3)c1 [Example 207, Ethanesulfonic acid [5-(7-chloro-1-methyl-2-oxo-1,2,3,4-tetrahydro-quinolin-6-yl)-pyridin-3-ylmethyl]-amide]
12 | 59 nM | 4200 nM | CCS(=O)(=O)NCc1cncc(-c2cc(F)c3c(c2)CCC(=O)N3C)c1 [Example 208, Ethanesulfonic acid [5-(8-fluoro-1-methyl-2-oxo-1,2,3,4-tetrahydro-quinolin-6-yl)-pyridin-3-ylmethyl]-amide]
13 | 162 nM | 7540 nM | CCS(=O)(=O)NCc1cncc(-c2cc(Cl)c3c(c2)CCC(=O)N3C)c1 [Example 209, Ethanesulfonic acid [5-(8-chloro-1-methyl-2-oxo-1,2,3,4-tetrahydro-quinolin-6-yl)-pyridin-3-ylmethyl]-amide]
14 | 30 nM | 1340 nM | CCS(=O)(=O)NCc1cncc(-c2ccc3c(c2F)CCC(=O)N3C)c1 [Example 210, Ethanesulfonic acid [5-(5-fluoro-1-methyl-2-oxo-1,2,3,4-tetrahydro-quinolin-6-yl)-pyridin-3-ylmethyl]-amide]
15 | 5 nM | 119 nM | CCS(=O)(=O)N(C)Cc1cncc(-c2cc3c(cc2F)N(C)C(=O)CC3)c1 [Example 211, Ethanesulfonic acid [5-(7-fluoro-1-methyl-2-oxo-1,2,3,4-tetrahydro-quinolin-6-yl)-pyridin-3-ylmethyl]-methyl-amide]
16 | 51 nM | 4830 nM | CCC(=O)NCc1cncc(-c2cc3c(cc2F)N(C)C(=O)CC3)c1 [Example 212, N-[5-(7-Fluoro-1-methyl-2-oxo-1,2,3,4-tetrahydro-quinolin-6-yl)-pyridin-3-ylmethyl]-propionamide]
17 | 30 nM | 104 nM | CC(C)(C)OC(=O)N1CC[C@H](Oc2cncc(-c3ccc4c(c3)CCC(=O)N4)c2)C1 [Example 214, (S)-3-[5-(2-oxo-1,2,3,4-tetrahydro-quinolin-6-yl)-pyridin-3-yloxy]-pyrrolidine-1-carboxylic acid tert-butyl ester]
18 | 42 nM | 879 nM | CN(Cc1cncc(-c2cc(Cl)c3c(c2)CCC(=O)N3)c1)C(=O)c1ncccc1Cl [Example 216, 3-Chloro-pyridine-2-carboxylic acid [5-(8-chloro-2-oxo-1,2,3,4-tetrahydro-quinolin-6-yl)-pyridin-3-ylmethyl]-methyl-amide]
19 | 29 nM | 1260 nM | CN1C(=O)CCc2cc(-c3cncc(CN[S@+]([O-])C(C)(C)C)c3Cl)ccc21 [Example 217, (R)-2-Methyl-propane-2-sulfinic acid [4-chloro-5-(1-methyl-2-oxo-1,2,3,4-tetrahydro-quinolin-6-yl)-pyridin-3-ylmethyl]-amide]
20 | 29 nM | 1200 nM | CN1C(=O)CCc2cc(-c3cncc(CN)c3Cl)ccc21 [Example 218, 6-(5-Aminomethyl-4-chloro-pyridin-3-yl)-1-methyl-3,4-dihydro-1H-quinolin-2-one hydrochloride]
21 | 12 nM | 557 nM | Cc1noc(C)c1C(=O)NCc1cncc(-c2ccc3c(c2)CCC(=O)N3C)c1Cl [Example 219, 3,5-Dimethyl-isoxazole-4-carboxylic acid [4-chloro-5-(1-methyl-2-oxo-1,2,3,4-tetrahydro-quinolin-6-yl)-pyridin-3-ylmethyl]-amide]
22 | 2 nM | 40 nM | CN1C(=O)CCc2cc(-c3cncc(CNC(=O)c4ncccc4Cl)c3Cl)ccc21 [Example 220, 3-Chloro-pyridine-2-carboxylic acid [4-chloro-5-(1-methyl-2-oxo-1,2,3,4-tetrahydro-quinolin-6-yl)-pyridin-3-ylmethyl]-amide]
23 | 4 nM | 1010 nM | Cc1c(CN)cncc1-c1ccc2c(c1)CCC(=O)N2C [Example 222, 6-(5-Aminomethyl-4-methyl-pyridin-3-yl)-1-methyl-3,4-dihydro-1H-quinolin-2-one hydrochloride]
